Data: ChEMBL document CHEMBL6096732 (J Med Chem, 2025)
The source made the active and inactive calls. The rule behind the calls is not given here.

Legend:
B16-F10 [1] = test: Antitumor activity against mouse B16-F10 cells implanted in male C57BL/6 mouse model assessed as tumor growth inhibition at 20 mg/kg, po administered once daily via gavage for 14 days relative to control; format: functional; conditions: B16-F10, 336 h, time 14 day, read-out: TGI
[2] = Oral bioavailability in male C57BL/6 mouse at 20 mg/kg; format: ADME, organism-based; conditions: in vivo
Mus musculus [3] = test: Immunomodulatory activity in male C57BL/6 mouse model implanted with mouse B16-F10 cells assessed as increase in CD3+ CD4+ T cells in tumor at 20 mg/kg, po administered once daily for 14 days by flow cytometric analysis (reference value: 3.1 %); format: functional; conditions: time 14 day
Mus musculus [4] = test: Immunomodulatory activity in male C57BL/6 mouse model implanted with mouse B16-F10 cells assessed as increase in CD3+ CD8+ T cells in tumor at 20 mg/kg, po administered once daily for 14 days by flow cytometric analysis (reference value: 3.2 %); format: functional; conditions: time 14 day
[5] = target: T1, Histone deacetylase 3 (Mus musculus) (UniProt O88895); test: In vivo inhibition of HDAC3 in male C57BL/6 mouse model implanted with mouse B16-F10 cells assessed as increase in acetylated histone H3 level in tumor at 20 mg/kg, po administered once daily via gavage for 14 days by DAPI staining based immunofluorescence analysis; format: functional, organism-based; conditions: time 14.0 day
T1 sequence (whole entry): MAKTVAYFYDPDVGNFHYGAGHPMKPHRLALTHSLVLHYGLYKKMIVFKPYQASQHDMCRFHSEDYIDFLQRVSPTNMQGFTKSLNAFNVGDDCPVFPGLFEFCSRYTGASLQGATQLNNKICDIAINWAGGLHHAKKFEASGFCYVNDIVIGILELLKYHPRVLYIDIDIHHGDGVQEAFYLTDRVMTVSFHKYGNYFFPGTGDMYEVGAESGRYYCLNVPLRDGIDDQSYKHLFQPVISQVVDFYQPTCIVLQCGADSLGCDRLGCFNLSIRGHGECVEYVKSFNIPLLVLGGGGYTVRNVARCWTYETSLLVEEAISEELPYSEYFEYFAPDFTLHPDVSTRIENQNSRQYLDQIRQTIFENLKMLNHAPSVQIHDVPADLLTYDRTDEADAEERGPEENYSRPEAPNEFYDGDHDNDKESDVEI

Mus musculus [6] = test: In vivo induction of PD-L1 degradation in male C57BL/6 mouse model implanted with mouse B16-F10 cells assessed as decrease in PD-L1 protein expression in tumor at 20 mg/kg, po administered once daily via gavage for 14 days by DAPI staining based immunofluorescence analysis; format: functional, organism-based; conditions: time 14.0 day
B16-F10 [7] = test: Downregulation of PARP1 expression in mouse B16-F10 cells at 2 uM incubated for 24 hrs by Western blot analysis; format: functional, cell-based
4T1 [8] = test: Downregulation of PARP1 expression in mouse 4T1 cells at 2 uM incubated for 24 hrs by Western blot analysis; format: functional, cell-based
B16-F10 [9] = test: Induction of DNA damage in mouse B16-F10 cells assessed as increase in gamma-H2AX expression at 2 uM incubated for 24 hrs by Western blot analysis; format: functional, cell-based
4T1 [10] = test: Induction of DNA damage in mouse 4T1 cells assessed as increase in gamma-H2AX expression at 2 uM incubated for 24 hrs by Western blot analysis; format: functional, cell-based
4T1 [11] = test: Antitumor activity against mouse 4T1 cells implanted in female BALB/c mouse model assessed as tumor growth inhibition administrated orally as once daily dose via gavage for 14 days relative to control; format: functional; conditions: route po; time 14 day
[12] = Toxicity in female BALB/c mouse model implanted with mouse 4T1 cells assessed as effect on body weight administrated orally as once daily dose via gavage for 14 days; conditions: in vivo, po, 336 h, time 14 day
4T1 [13] = test: Antitumor activity against mouse 4T1 cells implanted in female BALB/c mouse model assessed as decrease in PAPR1 expression in tumor administrated orally as once daily dose via gavage for 14 days by Western blot analysis; format: functional, cell-based; conditions: route po, time 14.0 day
4T1 [14] = test: Antitumor activity against mouse 4T1 cells implanted in female BALB/c mouse model assessed as induction of DNA damage by measuring increase in gamma-H2AX expression in tumor administrated orally as once daily dose via gavage for 14 days by Western blot analysis; format: functional, cell-based; conditions: route po, time 14.0 day

| bioavailability [2] | inhibition [5] | SMILES | inhibition in vivo at 20 mg/kg (B16-F10 [1]) | Activity (Mus musculus [3]) | Activity (Mus musculus [4]) | Activity (Mus musculus [6]) | Activity (B16-F10 [7]) | Activity (4T1 [8]) | Activity (B16-F10 [9]) | Activity (4T1 [10]) | TGI (4T1 [11]) | Activity [12] | Activity (4T1 [13]) | Activity (4T1 [14]) |
| --- | --- | --- | --- | --- | --- | --- | --- | --- | --- | --- | --- | --- | --- | --- |
| < 5% | inactive | Cc1c(COc2cc(OCc3cccc(C#N)c3)c(CNC(C)(C)C(=O)O)cc2Cl)cccc1-c1ccccc1 | 37% | 27% | 27% | Active | – | – | – | – | – | – | – | – |
| – | – | O=C(c1cc(Cc2n[nH]c(=O)c3ccccc23)ccc1F)N1CCN(C(=O)C2CC2)CC1 [OLAPARIB] | – | – | – | – | Active | Active | Active | Active | 36% | Non-toxic | Active | Active |
